Data from patent US20200129450A1, “COMPOSITION COMPRISING OSMUNDACETONE OR PHARMACEUTICALLY ACCEPTABLE SALT THEREOF FOR PREVENTING OR TREATING BONE DISEASE” (KORPHARM CO., LTD., priority 2016, published 2020).

Columns and labels:
[1] = tested on: osteoclasts differentiated from mouse bone marrow cells; assay: TRAP assay, osteoclast proliferation and differentiation inhibitory activity; format: cell-based
Procedure: Bone marrow cells were collected from the femur and shin bones of 5-8 week old male C57BL/6 mice. Muscles were removed from the bones, and stored in cold phosphate buffered saline (PBS; # CAP08-050, GenDEPOT, Katy, Tex., USA).
Both ends of each bone were cut, and the bone marrow was flushed with a flushing medium (serum-free α-MEM, 2 mM ethylenediaminetetraacetic acid) kept cool, using a 25 G needle.
Bone marrow cells were collected by centrifugation at 3,000 rpm for 3 min using Labogene 1248R (Labogene, Lynge, Denmark), and then resuspended in a wash medium. Thereafter, 8 mL of the collected bone marrow cells were overlaid on 6 mL of a lymphocyte isolation medium (LSM; #50494, MP Biomedicals, Santa Ana, Calif., USA), followed by centrifugation at 1,600 rpm for 20 minutes, thereby isolating mononuclear cells.
The mononuclear cell bands were collected from the media interface, and incubated using complete α-MEM (containing 10% fatal bovine serum (FBS; Capricorn Scientific, Ebsdorfergrund, Germany) and 1% (v/v) antibiotic (including 100 U/mL penicillin G and […] streptomycin)) in the conditions of 37° C. and 5% CO2 while the medium was exchanged every three days.
In order to promote the differentiation of osteoclasts, 1×10^5 cells were incubated in 0.5 mL of the medium per well in a 48-well plate, in the presence of osteoclast differentiation factors, M-CSF (60 ng/mL) and RANKL (150 ng/mL), purchased from PeproTec (Seoul, Korea). As known, macrophages/monocytes derived from one bone marrow differentiated into mature multinucleated osteoclasts after 6 days (Gurt et al., 2015).
The tibia and femur of 6-8 week old male C57BL/6 mice were aseptically resected, and bone marrow cells were aseptically collected using a syringe (21 G, Korea Green Cross). The bone marrow cells were floated in 500 μL of α-MEM medium (Gibco BRL Co.) containing sodium bicarbonate (2.0 g/L), streptomycin (100 mg/L), and penicillin ([…]), dispensed in a 48-well plate, and assayed in triplicate. Mononuclear cells as precursor cells of osteoclasts were treated with RANKL and M-CSF as differentiation promoting factors, and thus differentiated into osteoclasts within 5-7 days.
2-1) Sample preparation: The hot-water extract, EA extract, or fraction of Osmunda japonica were prepared by the same methods as in section 1 of <Example 1>. The EA-2 extract was dissolved in a minimum amount of DMSO, and then diluted with water to 70% of the original volume of the hot-water extract assuming that the yield of EA-2 extraction was approximately 70%. 2-2) Sample administration: The sample was continuously administered to a medium at 1:20 (v/v; 25 μL of the sample per 500 μL of the medium) from day 1 of incubation of bone marrow cells, while the medium was exchanged every 2-3 days. 2-3) Measurement of osteoclast differentiation Osteoclasts were defined by TRAP-positive multinucleated cells stained with TRAP. As for TRAP stain solution, 5 mg of naphthol AS-MS phosphate (Sigma N-4875) as a base and 25 mg of Fast Red Violet LB salt as a color developing reagent were dissolved in about 0.5 mL of N,N-dimethylformamide, and then mixed with 0.1N NaHCO3 buffer solution (50 mL) containing 50 mM tartaric acid. The reaction reagent was stored in a refrigerator before use.
After bone marrow cells were incubated in a medium containing differentiation promoting factors for 7 days, the medium was removed, and the cells were washed with PBS, and then immobilized with PBS containing 10% formalin for 2-5 minutes. Thereafter, the cells were immobilized with a 1:1 mixture solution of ethanol and acetone, followed by drying. The immobilized cells were treated with the TRAP stain solution for 15 minutes, and washed with PBS, and then the degree of cell staining was observed by a microscope.
In the microscope field of view, cells having two or more nuclei in the TRAP-positive cells were determined to be osteoclasts, and the number of cells was measured. […]

ALP activity in MC3T3-E1 = assay: Measurement of ALP activity in MC3T3-E1; format: cell-based, mouse; conditions: 1 μM (positive control, printed in the 10 μM column), MC3T3-E1
Procedure: ALP activity was assessed using Quantichrom ALP Assay Kit (Bioassay Systems, Hayward, Calif., USA) according to manufacturer's instructions.
Briefly, 3×10^3 MC3T3-E1 cells were dispensed in a 96-well plate together with […] of complete α-MEM containing ascorbic acid (50 μg/mL) and 10 mM β-glycerophosphate per well. Here, osmundacetone (10 μM and 50 μM) was added or not added, and the medium was exchanged every 3-4 days.
On day 14 of the incubation, the colorimetric change due to ALP activity in the cell fraction was measured using a spectrophotometer plate reader (Molecular Devices, Sunnyvale, Calif., USA) at 405 nm (Kim et al., 2016). The % activation of ALP activity was shown by comparing ALP activity of cells treated with an experimental compound and ALP activity of the non-treated control cells.

| Molecule | formation of giant osteoclasts, number compared with the positive control group ([1]; 1 μM) | IC50 ([1]; Mus musculus, Osteoclast, tested at 1, 4, 7 and 10 μM, TRAP-positive multinucleated cells) | % Activation of ALP activity (ALP activity in MC3T3-E1) |
| --- | --- | --- | --- |
| NCCCC(O)(P(=O)(O)O)P(=O)(O)O [Fosamax, alendronate, reference compound] | smaller compared with the positive control group | ≤ 4 µM | – |
| Parathyroid hormone-related peptide [reference compound] | – | – | 138 ± 19% |
